The source made the active and inactive calls.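 The calls were made as follows: active = at least 15% inhibition at the top concentration together with an EC50 under 10 microM; inactive = the rest.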
Test: potency against LAMP-1 externalization in TALL-104 – TALL-104 cells, flow cytometry, CherryPick01, dose response (AID 652101);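 also: 0% = stimulated DMSO control and 100% = unstimulated control wells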
Conditions: TALL-104 lytic granule exocytosis, LAMP-1 flow cytometry, at 15.1 µM (top of the series)
[1] = stimulated with 1 µM thapsigargin, 50 nM PMA

Row | SMILES | inhibition [1] | inhibition
1 | COCCNc1nc(NCc2cccc(OC)c2)c2sc(-c3ccccc3)cc2n1 | 105% (inactive) | 
2 | O=C1OC(c2ccccc2)(c2cc(Br)ccc2O)c2ccccc21 (centres undefined) | 109% (inactive) | 
3 | COC(=O)c1ccc(NC(=O)CSc2nc3ccc(N4C(=O)C5C6C=CC(C6)C5C4=O)cc3s2)cc1 (centres undefined) |  | 92.5% (inactive)
4 | CCOC(=O)c1ccc(NC(=O)c2ccc(C)c(S(=O)(=O)N3CCOCC3)c2)cc1 | 102% (inactive) | 
5 | CCN1CCN(Cc2ccc(NC(=O)c3cc(NC(=O)C(=O)c4c[nH]c5ccccc45)cc(OC)c3)cc2C(F)(F)F)CC1 | 81.8% (inactive) | 
6 | O=C(Nc1nc2ccccc2n1CCN1CCOCC1)c1ccc(COc2ccccc2Br)o1 | 102% (inactive) | 
7 | N#Cc1c(NC(=O)c2ccc(Br)o2)n(-c2ccccc2)c2nc3ccccc3nc12 | -12.1% (inactive) | 
8 | CCOC(=O)c1c(CSc2ccccc2)n(C)c2cc(Br)c(O)c(CN(C)C)c12 | 20.5% (inactive) | 
9 | CC(Nc1nc(N2CCNCC2)nc2ccccc12)c1ccccc1 (centres undefined) | 104% (inactive) | 
10 | CCN(CC)CCOC(=O)c1ccc(N/C=C(/C#N)c2nc(-c3ccc(OC)cc3)cs2)cc1 | 56.9% (inactive) | 
11 | CCCCNc1c(-c2ccc(OC)c(SC3CCCCC3)c2)nc2ccc(C)cn12 | 103% (inactive) | 
12 | CC(=O)Nc1cc(-c2ccccc2F)cn2c(-c3ccccc3)cnc12 | 106% (inactive) | 
13 | COc1cc2c(cc1OC)C(c1ccc(-c3ccc(Cl)c(Cl)c3)o1)=NCC2 | 88.4% (inactive) | 
14 | OC1(c2cccc(C(F)(F)F)c2)CCN(c2ncnc3c2[nH]c2ccc(F)cc23)CC1 | 107% (inactive) | 
15 | COc1ccc(-c2cc(NC(C)=O)c3ncc(-c4ccccc4)n3c2)c(OC)c1 | 106% (inactive) | 
16 | Cc1ccc(Cl)cc1-c1cc(C(=O)NCc2ccc(C(F)(F)F)cc2)[nH]n1 | 103% (inactive) | 
17 | CN1CCN(CCCNC(=O)c2ccc(/C=C3\Sc4ccccc4N(Cc4ccc(F)cc4)C3=O)cc2)CC1 | 89.7% (inactive) | 
18 | Cc1ccc(C(=O)N/C(=C\c2ccc(-c3ccc(Br)cc3)o2)C(=O)NCCCN(C)C)cc1 | -10.6% (inactive) | 
19 | O=[N+]([O-])c1ccc2nc(/C=C/c3ccc(Cl)cc3)[nH]c2c1 | 98.6% (inactive) | 
20 | CN1CCN(c2cc(-c3ccccc3)nc3cc(-c4ccc(F)cc4)nn23)CC1 | 61.3% (inactive) | 
21 | CCOc1ccc(-c2cc(C(=O)NCCCn3ccnc3)c3cc(Br)ccc3n2)cc1 | 25.6% (inactive) | 
22 | CC(C)c1ccccc1OCC(O)CN(CC(O)COc1cccc2ccccc12)C(C)C (centres undefined) | 101% (inactive) | 
23 | CC1(C(=O)OCC(=O)Nc2nc(-c3ccc(F)c(F)c3)cs2)CC1(Cl)Cl (centres undefined) | 95% (inactive) | 

Row | SMILES | inhibition [1] | inhibition
24 | O=C(CCN1CCc2ccccc2C(c2ccccc2)C1)c1ccc2c(c1)OCCO2 (centres undefined) | 101% (inactive) | 
25 | COC(=O)c1ccc(NCc2c(O)ccc(O)c2Br)cc1Cl | 72.6% (inactive) | 
26 | CCOC(=O)c1nnc(-c2ccccc2)nc1Sc1ccccc1Cl | 66.7% (inactive) | 
27 | Cn1cncc1C#Cc1c(-c2ccc(S(C)(=O)=O)cc2)sc2ccccc12 | 102% (inactive) | 
28 | CN(C)CCC(=O)c1ccc2c(c1)OCO2 | 103% (inactive) | 
29 | COc1cccc(-c2cnc3c(NC=O)cc(-c4ccccc4)cn23)c1 | 101% (inactive) | 
30 | CCc1ccc2nc(N(CCCN(C)C)C(=O)c3ccc(S(=O)(=O)N4CCc5ccccc5C4)cc3)sc2c1 | 81.8% (inactive) | 
31 | CCC(C)Nc1nc(-c2cccc(OC)c2O)nc2ccccc12 (centres undefined) | 101% (inactive) | 
32 | COc1ccc(C2CC(c3cccs3)=NN2c2nc(C)c(C(C)=O)s2)cc1OC (centres undefined) | 2.08% (inactive) | 
33 | CCC(=C(c1ccc(OC)cc1)c1ccc(OC)cc1)c1cn(CC(O)CN2CCN(C)CC2)c2ccccc12 (centres undefined) | 87.4% (inactive) | 
34 | COc1cccc2c1C(=O)c1ccc3ccccc3c1C2=O | 18.2% (inactive) | 
35 | COC(=O)[C@]12CCCCC=C1N(Cc1cccc3ccccc13)C(=O)[C@H](CC(=O)NCc1ccc(OC)c(OC)c1)C2 | 108% (inactive) | 
36 | O=c1c2ccccc2sn1-c1ccc(Cl)cc1 | 103% (inactive) | 
37 | NCCc1c(-c2ccccc2)n(-c2ccccc2)c2ccccc12 | 68.2% (inactive) | 
38 | COc1ccc2sc(N(CCCN(C)C)C(=O)c3ccc(S(=O)(=O)N4CCc5ccccc5C4)cc3)nc2c1 | 50% (inactive) | 
39 | Cc1ccc(-c2nn(-c3ccccc3)cc2CNCc2ccccc2)cc1 | 99.5% (inactive) | 
40 | COc1ccc([N+](=O)[O-])cc1Nc1c2ccccc2nc2ccccc12 | 79.8% (inactive) | 
41 | c1ccc(CCNc2ccnc3cc4ccccc4cc23)cc1 | 90.2% (inactive) | 
42 | Oc1ccccc1Nc1nc(NCc2ccccc2)c2ccccc2n1 | 90.6% (inactive) | 
43 | COc1ccc(-c2cc(NC=O)c3ncc(-c4ccccc4)n3c2)cc1OC | 89.8% (inactive) | 
44 | OC(CNCC(c1ccc(Cl)cc1Cl)c1c[nH]c2ccccc12)c1ccccc1 (centres undefined) | 81.7% (inactive) | 
45 | COc1ccc(N2C(=O)CC(Sc3n[nH]c(-c4ccccc4)n3)C2=O)cc1 (centres undefined) | 95.2% (inactive) | 
46 | CN1CCN(c2ccc(NC(=O)c3ccc(-c4ccc(Cl)cc4)o3)cc2)CC1 | 97.9% (inactive) | 

Row | SMILES | inhibition [1] | inhibition
47 | O=C(Nc1nc(-c2ccccc2)cs1)c1ccc2c(=O)n3c(nc2c1)CCCCC3 | 74.2% (inactive) | 
48 | Cc1ccc(-c2nn(-c3ccccc3)cc2CN(Cc2ccccc2)C(=O)c2ccco2)o1 | 105% (inactive) | 
49 | O=C(Nc1ccc2nc(-c3cccs3)c(-c3cccs3)nc2c1)N1CCOCC1 | -2.59% (inactive) | 
50 | CN(C)CCCNC(=S)NCC(c1ccc(Cl)cc1Cl)c1c[nH]c2ccccc12 (centres undefined) | 92.7% (inactive) | 
51 | CCOc1ccc(C(=O)CCN2CCCCCC2)cc1 | 91.4% (inactive) | 
52 | Cc1cc(C(=O)CSc2nc3ccccc3[nH]2)c(C)n1CC1CCCO1 (centres undefined) | 89.3% (inactive) | 
53 | CC(=O)Nc1ccc2sn(-c3ccccc3)c(=O)c2c1 | 81.8% (inactive) | 
54 | N#Cc1ccc(NC(=O)Nc2ccc(Oc3ccc(NC(=O)Nc4ccc(C#N)cc4)cc3)cc2)cc1 | 33.8% (inactive) | 
55 | CCOC(=O)c1c(NC(=O)CSc2nnnn2-c2ccccc2OCC)sc2c1CC(C)(C)NC2(C)C | 84.6% (inactive) | 
56 | C=CCNc1nc(NCc2ccc(N(C)C)cc2)c2sc(-c3ccccc3)cc2n1 | -13.9% (inactive) | 
57 | COC(=O)c1c(NC(=O)c2ccc(C(=O)c3ccccc3)cc2)sc2c1CC(C)(C)NC2(C)C | 90.2% (inactive) | 
58 | COc1ccc(N(CC(=O)NCCSc2ccccn2)S(=O)(=O)c2ccccc2)c(OC)c1 | -7.92% (inactive) | 
59 | O=c1c2ccc(F)cc2sn1-c1ccccc1 | 75.9% (inactive) | 
60 | COc1ccc2[nH]c3c(N4CCc5ccccc5C4)ncnc3c2c1 | 89.2% (inactive) | 
61 | CN(c1ccccc1)S(=O)(=O)c1cccc(C(=O)NCCc2c[nH]c3ccccc23)c1 | 42.1% (inactive) | 
62 | O=c1c(Cl)c2oc3ccccc3nc-2c2ccccc12 | -0.07% (inactive) | 
63 | CSc1cccc(NC(=S)N(CCCN2CCCC2)Cc2cccn2Cc2ccc(Cl)cc2)c1 | 65.2% (inactive) | 
64 | C=C(C)COc1ccc(-c2n[nH]c(C)c2-c2ccc(OC)cc2)c(O)c1 | 106% (inactive) | 
65 | O=C(Nc1ccc2nc(-c3cccs3)c(-c3cccs3)nc2c1)NC1CC1 | 68.3% (inactive) | 
66 | Cc1ccc2nc(-c3ccc(N4C(=O)CC(N5CCN(CCO)CC5)C4=O)cc3)sc2c1 (centres undefined) | 83.1% (inactive) | 
67 | COC(=O)c1ccc(N2CCN(C)CC2)c(NC(=O)c2sc3ccccc3c2Cl)c1 | 70.3% (inactive) | 
68 | O=C(Nc1nc2ccc(SC(F)F)cc2s1)c1ccc(NS(=O)(=O)c2ccc(F)c(F)c2)cc1 | 105% (inactive) | 
69 | Cc1cc(C)c2sc(N(CCCN(C)C)C(=O)c3ccc(S(=O)(=O)N4CCc5ccccc5C4)cc3)nc2c1 | -21.4% (inactive) | 

Row | SMILES | inhibition [1] | inhibition
70 | CCCCCc1c(-c2cccc(F)c2)ncn1CCc1ccccc1OC | 102% (inactive) | 
71 | CCc1nc2ccc(C(=O)NC3CCN(Cc4ccccc4)CC3)cn2c1N(C)Cc1cc2ccccc2s1 | 101% (inactive) | 
72 | O=C1ON=C(c2ccccc2)/C1=C/c1ccc(-c2ccccc2[N+](=O)[O-])o1 | 102% (inactive) | 
73 | CN(C)CCNC(=O)c1ccc(-c2cn3c(-c4ccc(Oc5ccccc5)cc4)cnc3cn2)cc1 | 81.6% (inactive) | 
74 | CCOc1ccc2nc(N(CCCN(C)C)C(=O)c3ccc(S(=O)(=O)N4CCc5ccccc5C4)cc3)sc2c1 | 37% (inactive) | 
75 | Cn1sc(=O)c2cc(S(=O)(=O)NC3CC3)ccc21 | 103% (inactive) | 
76 | CC(=O)Nc1ccc2c(=O)n(-c3ccccc3)sc2c1 | 67.8% (inactive) | 
77 | CN(C)CCCN(C(=O)CCSc1ccccc1)c1nc2cc3c(cc2s1)OCO3 | 90.1% (inactive) | 
78 | CC(C)CNC(=O)c1c(N)n(Cc2ccc3c(c2)OCO3)c2nc3ccccc3nc12 |  | 69.2% (inactive)
79 | O=[N+]([O-])c1cccc(-c2cc(-c3cc(Br)ccc3O)[nH]n2)c1 | 67.8% (inactive) | 
80 | COc1ccc(Cl)c(-c2cc(C(=O)NCc3ccc(C(F)(F)F)cc3)[nH]n2)c1 | 103% (inactive) | 
81 | CCOc1cc(CNCCc2ccc(S(N)(=O)=O)cc2)ccc1OCc1ccc(Cl)cc1 | 48.5% (inactive) | 
82 | COc1ccc2nc3cc(Cl)ccc3c(Nc3ccc(O)c(CN4CCN(C)CC4)c3)c2c1 | 66.6% (inactive) | 
83 | CCOC(=O)[C@]12Cc3cc(Cl)ccc3[C@H]1N(C1CCCCC1)C(=O)c1cc(OC)ccc12 |  | 102% (inactive)
84 | CC(C)(c1ccccc1)c1ccc(OCC(O)CNC2CCN(Cc3ccccc3)CC2)cc1 (centres undefined) | 31.5% (inactive) | 
85 | Oc1ccccc1Nc1nc(NCc2ccco2)c2ccccc2n1 | 107% (inactive) | 
86 | Nc1c(C(=O)NCc2ccc(F)cc2)c2nc3ccccc3nc2n1CCCN1CCOCC1 | 72.5% (inactive) | 
87 | CCOC(=O)c1c(NC(C)=O)sc2c(OCC(O)CN(CC)CC)c(Br)ccc12 (centres undefined) | 88.2% (inactive) | 
88 | CCCCC[C@@H](C)N1C[C@H](COCc2ccccc2)Oc2cc(N3CC[C@@H](N(C)C)C3)ccc2S1(=O)=O | 65% (inactive) | 
89 | CCCNC(=O)Cn1sc2nc(C)cc(C)c2c1=O | 97.3% (inactive) | 

From PubChem BioAssay AID652101 (NMMLSC, 2013)
